Test [1] has as its target T1, KDM3B (Homo sapiens, UniProt Q7LBC6). Kind of test: cell-free TR-FRET demethylase inhibition assay (Eurofins). The class given is biochemical. On the technique in general: In TR-FRET formats the signal depends on donor and acceptor labels being close together.
The test system of test [2] is 7250. Kind of test: cells. On the set-up: 72 h cell growth/viability dose-response in pediatric solid tumour lines and primary fibroblasts. Particulars: 72 h, primary human fibroblast; read-out: P3FI-63 EC50 (72 hr), fibroblast. The text has this: (§1) The half-maximal effective concentrations (EC50) of P3FI-63 on FP-RMS cell lines RH4, RH30, and SCMC were in the single digit µM range (Fig. 1E). Next, we tested other pediatric solid cancer lines to determine broader applicability of P3FI-63.

Test [3] concerns A673. The test is described as follows: cells. On the set-up: 72 h cell growth/viability dose-response in pediatric solid tumour lines and primary fibroblasts. Particulars: Homo sapiens, A673, 72 h; read-out: P3FI-63 EC50 (72 hr).
Excerpt: as §1

Test [4] relates to CTR. Kind of test: cells. Further details: 72 h cell growth/viability dose-response in pediatric solid tumour lines and primary fibroblasts. Particulars: Fibroblast, 72 h; read-out: P3FI-63 EC50 (72 hr).
Excerpt: as §1

Test [5] concerns HU09. The test is described as follows: cells. Particulars: Fibroblast, 72 h; read-out: P3FI-63 EC50 (72 hr). Further details: 72 h cell growth/viability dose-response in pediatric solid tumour lines and primary fibroblasts.
Excerpt: as §1

In test [6] the test system is OSA. Kind of test: cells. On the set-up: 72 h cell growth/viability dose-response in pediatric solid tumour lines and primary fibroblasts. To be noted: Fibroblast, 72 h; read-out: P3FI-63 EC50 (72 hr).
Excerpt: as §1

The test system of test [7] is TC-32. Kind of test: cells. Further details: 72 h cell growth/viability dose-response in pediatric solid tumour lines and primary fibroblasts. Particulars: Homo sapiens, TC-32, 72 h; read-out: P3FI-63 EC50 (72 hr).
Excerpt: as §1

Test [8] has as its target T1, KDM3B. Kind of test: SPR (Biacore T200); also WaterLOGSY and CPMG ligand-observed NMR, and enzyme inhibition (TR-FRET). The class given is binding. Further details: full-length KDM3B (His6-Avi-KDM3B) for SPR; enzymatic domain (truncated) for NMR.

pEC50, pIC50, pKd: −log10 of the molar value.

As a reminder, the pIC50 is the negative decadic logarithm of the IC50, by convention in mol/L. Broadly, the pEC50 is the negative decadic logarithm of the EC50, by convention in mol/L. As a reminder, the pKd is the Kd on a negative log10 scale, so that one unit is a factor of ten. A lower pKd goes with a high Kd.

T1 sequence (Q7LBC6 2-1761): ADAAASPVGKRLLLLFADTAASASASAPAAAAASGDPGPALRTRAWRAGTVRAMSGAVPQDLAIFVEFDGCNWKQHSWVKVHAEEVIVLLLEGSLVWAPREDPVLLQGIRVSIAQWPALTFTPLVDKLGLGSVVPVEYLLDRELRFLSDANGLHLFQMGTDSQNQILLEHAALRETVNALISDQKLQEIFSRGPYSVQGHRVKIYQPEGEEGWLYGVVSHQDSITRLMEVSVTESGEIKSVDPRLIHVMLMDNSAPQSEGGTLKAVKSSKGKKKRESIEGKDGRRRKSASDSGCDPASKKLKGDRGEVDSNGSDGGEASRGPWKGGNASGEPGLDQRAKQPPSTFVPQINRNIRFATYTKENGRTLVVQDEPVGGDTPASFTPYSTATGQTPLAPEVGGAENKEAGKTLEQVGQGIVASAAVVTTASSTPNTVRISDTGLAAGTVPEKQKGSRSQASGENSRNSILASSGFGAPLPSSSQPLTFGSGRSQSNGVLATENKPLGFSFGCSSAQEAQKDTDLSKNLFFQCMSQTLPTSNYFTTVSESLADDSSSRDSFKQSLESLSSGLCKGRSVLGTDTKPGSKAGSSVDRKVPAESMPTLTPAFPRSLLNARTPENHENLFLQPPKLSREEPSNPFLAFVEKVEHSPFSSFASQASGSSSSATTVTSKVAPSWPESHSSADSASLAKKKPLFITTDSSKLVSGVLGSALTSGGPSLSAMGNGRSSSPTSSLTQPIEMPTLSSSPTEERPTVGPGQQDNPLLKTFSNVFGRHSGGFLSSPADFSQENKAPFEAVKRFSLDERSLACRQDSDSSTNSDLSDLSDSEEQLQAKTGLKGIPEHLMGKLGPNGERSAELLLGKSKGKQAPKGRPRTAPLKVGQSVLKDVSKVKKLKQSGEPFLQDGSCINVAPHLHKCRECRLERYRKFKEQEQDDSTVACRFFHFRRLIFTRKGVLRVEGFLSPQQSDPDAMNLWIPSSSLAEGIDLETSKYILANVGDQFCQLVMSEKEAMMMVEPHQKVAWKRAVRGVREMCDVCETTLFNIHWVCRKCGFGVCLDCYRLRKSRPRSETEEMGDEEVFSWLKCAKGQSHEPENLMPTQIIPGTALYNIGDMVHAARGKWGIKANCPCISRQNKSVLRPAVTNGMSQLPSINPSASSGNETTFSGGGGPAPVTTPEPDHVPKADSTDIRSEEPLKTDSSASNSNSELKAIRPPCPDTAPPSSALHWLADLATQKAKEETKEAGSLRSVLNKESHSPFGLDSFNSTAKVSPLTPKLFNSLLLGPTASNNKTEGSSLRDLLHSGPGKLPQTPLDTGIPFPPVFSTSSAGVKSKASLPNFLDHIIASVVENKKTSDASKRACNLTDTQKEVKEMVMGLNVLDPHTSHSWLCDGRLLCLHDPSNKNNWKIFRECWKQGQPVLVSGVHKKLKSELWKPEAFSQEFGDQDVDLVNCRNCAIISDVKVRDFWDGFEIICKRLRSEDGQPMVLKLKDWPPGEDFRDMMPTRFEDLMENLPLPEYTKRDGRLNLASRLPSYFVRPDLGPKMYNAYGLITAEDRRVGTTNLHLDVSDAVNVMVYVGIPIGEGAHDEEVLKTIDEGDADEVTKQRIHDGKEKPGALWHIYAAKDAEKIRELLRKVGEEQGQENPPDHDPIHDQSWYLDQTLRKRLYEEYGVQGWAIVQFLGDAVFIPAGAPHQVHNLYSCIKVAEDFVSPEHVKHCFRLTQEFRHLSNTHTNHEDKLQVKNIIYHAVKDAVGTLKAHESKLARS

With `Cc1cc(C)cc(C(=O)NNC(=O)c2ccccn2)c1` [P3FI-63], in test [1], the pIC50 is 5.15. The negative-log EC50 (pEC50) in test [2] is 5.18; in test [3], 5.43; in test [4], 5.53; in test [5] it was 5.51; in test [6], 5.12; in test [7] it was 5.77.

For the compound `O=C(NNc1ccccn1)c1ccccn1` [P3FI-90], the pKd in test [8] was 5.11.
